Data as given in the NIST ThermoML archive (doi:10.1021/je700344f).

Assay: xn = mol fraction of the nth substance listed
Details: 101 kPa, Liquid

CN(C)c1ccccc1 [N,N-dimethylaniline] + CCCCCCO
Details | mass density [kg/m3] | viscosity [mPa·s]
283.15 K, x2 = 0.1009 | 958.16 | 1.749
283.15 K, x2 = 0.2017 | 944.54 | 1.867
283.15 K, x2 = 0.3022 | 928.83 | 2.079
283.15 K, x2 = 0.4025 | 915.52 | 2.306
283.15 K, x2 = 0.5026 | 904.21 | 2.676
283.15 K, x2 = 0.6025 | 890.94 | 3.092
283.15 K, x2 = 0.7022 | 876.26 | 3.708
283.15 K, x2 = 0.8016 | 861.23 | 4.614
283.15 K, x2 = 0.9009 | 848.23 | 5.687
293.15 K, x2 = 0.1009 | 950 | 1.448
293.15 K, x2 = 0.2017 | 936.43 | 1.527
293.15 K, x2 = 0.3022 | 920.62 | 1.667
293.15 K, x2 = 0.4025 | 909.23 | 1.837
293.15 K, x2 = 0.5026 | 896.74 | 2.086
293.15 K, x2 = 0.6025 | 882.6 | 2.359
293.15 K, x2 = 0.7022 | 868.6 | 2.821
293.15 K, x2 = 0.8016 | 852.26 | 3.401
293.15 K, x2 = 0.9009 | 841.25 | 4.138
303.15 K, x2 = 0.1009 | 942.24 | 1.221
303.15 K, x2 = 0.2017 | 928.31 | 1.276
303.15 K, x2 = 0.3022 | 912.67 | 1.38
303.15 K, x2 = 0.4025 | 901.18 | 1.496
303.15 K, x2 = 0.5026 | 888.09 | 1.668
303.15 K, x2 = 0.6025 | 875.63 | 1.891
303.15 K, x2 = 0.7022 | 860.74 | 2.16
303.15 K, x2 = 0.8016 | 846.02 | 2.585
303.15 K, x2 = 0.9009 | 832.65 | 3.101
313.15 K, x2 = 0.1009 | 933.77 | 1.051
313.15 K, x2 = 0.2017 | 920.41 | 1.086
313.15 K, x2 = 0.3022 | 904.59 | 1.16
313.15 K, x2 = 0.4025 | 892.85 | 1.246
313.15 K, x2 = 0.5026 | 879.8 | 1.369
313.15 K, x2 = 0.6025 | 867.83 | 1.524
313.15 K, x2 = 0.7022 | 852.77 | 1.732
313.15 K, x2 = 0.8016 | 839.15 | 2.023
313.15 K, x2 = 0.9009 | 824.98 | 2.37
323.15 K, x2 = 0.1009 | 925.31 | 0.917
323.15 K, x2 = 0.2017 | 912.27 | 0.939
323.15 K, x2 = 0.3022 | 896.34 | 0.992
323.15 K, x2 = 0.4025 | 885.58 | 1.056
323.15 K, x2 = 0.5026 | 872.2 | 1.138
323.15 K, x2 = 0.6025 | 859.03 | 1.269
323.15 K, x2 = 0.7022 | 843.94 | 1.404
323.15 K, x2 = 0.8016 | 831.15 | 1.61
323.15 K, x2 = 0.9009 | 818.33 | 1.869
333.15 K, x2 = 0.1009 | 916.93 | 0.812
333.15 K, x2 = 0.2017 | 905.29 | 0.826
333.15 K, x2 = 0.3022 | 887.96 | 0.861
333.15 K, x2 = 0.4025 | 876.93 | 0.908
333.15 K, x2 = 0.5026 | 864.04 | 0.971
333.15 K, x2 = 0.6025 | 849.87 | 1.044
333.15 K, x2 = 0.7022 | 837.74 | 1.157
333.15 K, x2 = 0.8016 | 823.68 | 1.31
333.15 K, x2 = 0.9009 | 810.66 | 1.423
343.15 K, x2 = 0.1009 | 909.05 | 0.774
343.15 K, x2 = 0.2017 | 895.76 | 0.731
343.15 K, x2 = 0.3022 | 880 | 0.737
343.15 K, x2 = 0.4025 | 867.83 | 0.79
343.15 K, x2 = 0.5026 | 854.24 | 0.83
343.15 K, x2 = 0.6025 | 842.51 | 0.902
343.15 K, x2 = 0.7022 | 829.06 | 0.973
343.15 K, x2 = 0.8016 | 813.99 | 1.08
343.15 K, x2 = 0.9009 | 803.44 | 1.218
